Assay results from patent US11904051B2, “Shear stress sensitive liposomes” (Universität Basel, priority 2018, dated 2024).
Like-named read-outs stand apart in the source and are kept apart here.

How the values were obtained:
[1] = Dynamic light scattering of liposome formulations before and after SANS heating cycles; format: physicochemical; conditions: for PDI, Before heating / Size (hydrodynamic), Before heating: before the SANS experiments (n = 5); for Size (hydrodynamic), Before heating: room temperature, D2O; for DLS larger population size: bimodal size distribution; for PDI, After heating / Size (hydrodynamic), After heating: after the SANS experiments (n = 3); for Size (hydrodynamic), After heating: heating to 42° C. and back, eight months after
Protocol: A library of artificial phospholipids was synthesised. Table 5 summarises the characterisation of the liposomal formulations concerning hydrodynamic size and polydispersity, before and after the temperature-dependent SANS measurements. The size of the DPPC and Pad-PC-Pad liposomes was (120±2) nm with a polydispersity index between 0.01 and 0.20. […] Pad-Pad-PC and Sur-PC-Sur liposomes were 400 to 1,500 nm in size with a polydispersity index of 0.57.
DLS measurements were carried out on a DelsaMax PRO (Beckman Coulter, USA) at room temperature and at a lipid concentration of 0.3 mg/mL in D2O. The data were averaged among five independent measurements before heating cycles and three measurements eight months after applying heating cycles. Data were treated with the cumulant analysis method.

[2] = reported previously, cited from earlier work
[3] = Small-angle neutron scattering (SANS) of liposomes as a function of temperature; format: physicochemical
From the text: In order to determine the structural parameters, including the bilayer thickness of the selected liposomal formulations, a suitable model for data fitting has to be identified. […] The structure factor was fitted using the sticky hard sphere model (Baxter et al., The Journal of Chemical Physics 1968, 49 (6), 2770-2774; Mays, Langmuir 1989, 5, 422-428). In order to adjust the form factor to the overall shape of the liposomes, an ellipsoidal shell model with a homogeneous cross-section (Guinier, Annales de Physique, 1939; pp 161-237) was applied. The elliptical shell model is defined by three orthogonal axes with lengths a=R, b=R and c=εR, along with eccentricity ε>0, (ε<1: oblate, ε=1: spherical, ε>1: prolate). The model also accounts for variations in bilayer thickness and liposome size. As the scattering data of the Pad-PC-Pad liposomes at the temperature of 35° C. could not be approximated satisfactorily by means of the ellipsoidal shell, the inventors included disks with a homogeneous cross-section—an approach motivated by the cryo-TEM results. Together with the experimental data of the Pad-PC-Pad liposomes at three selected temperatures, the obtained fits are represented in FIG. 23.
The inventors recognised that the inhomogeneity of the liposomal formulations, except for Pad-PC-Pad, concerning the shape and size of the artificial lipids in this study only allows for the reasonable fitting of the q-range, which corresponds to bilayer thickness. For this purpose, the inventors applied an extended Guinier law (Hjelm et al., The Journal of Physical Chemistry B 2000, 104 (2), 197-211; Fratzl, Journal of Statistical Physics 1994, 77 (1-2), 125-143), which yields the thickness of the bilayer. To account for possible multi-lamellarity, the inventors included a para-crystalline stacking model (Schwartz et al., Biophysical journal 1975, 15 (12), 1201-1233; FruÈhwirth et al., Journal of Applied Crystallography 2004, 37 (5), 703-710) as a structure factor.
SANS measurements were performed at the SANS-I beamline at the Swiss Spallation Neutron Source SINQ facility (Paul Scherrer Institute, Villigen, Switzerland). The samples were loaded into 2 mm-path length, boron-free quartz glass cells and mounted in a temperature-controlled holder. This system allows for controlling the temperature of the specimen with an accuracy better than 1 K. The liposomal suspensions were measured between 22 and 42° C. in 3 to 4 K steps. Subsequently, the suspensions were cooled down to room temperature (22° C.) and measured again. Three detector distances, i.e. 1.6, 6.0 and 18.0 m, were used to collect data over the range of scattering vectors 0.01 nm^−1<q<10 nm^−1 at the neutron wavelengths (A) […]. Data were collected with a two-dimensional ^3He-detector with an array of 128×128 pixels and reduced to one-dimensional I(q) scattering curves, thus radially averaging the two-dimensional images. The data were corrected for transmission, background scattering and detector efficiency according to a standard procedure using the BerSANS software package (Keiderling, Applied Physics A 2002, 74 (1), s1455-s1457; Strunz et al., Journal of Applied Crystallography 2000, 33 (3 Part 1), 829-833).
The SANS data were analysed using SASfit software (Breßler et al., Journal of Applied Crystallography 2015, 48 (5), 1587-1598) and corresponding models. A Pad-PC-Pad sample was fitted over the entire measured q-range, whereas we restricted the fit for the other samples to the q-range, which corresponds to lipid bilayer thickness. For Pad-PC-Pad, the inventors used an ellipsoidal shell model with a homogeneous cross-section (Guinier, Annales de Physique, 1939; pp 161-237) and size distributions in terms of both thickness and radius. […]

[4] = Release experiments with 5(6)-carboxyfluorescein-loaded large unilamellar vesicles (LUVET100), spontaneous and vortex-triggered; format: physicochemical
From the text: FIG. 8 Release experiments using 5(6)-carboxyfluorescein-loaded large unilamellar vesicles comprising 1,3-diheptadecanamidopropan-2-yl (2-(trimethylammonio) ethyl) phosphate (4) obtained via extrusion through a 100 nm track-edged filter membrane (LUVET100). Triggered release was induced by shaking the samples for a specific amount of time on a vortex-shaker.
Previously the inventors reported the 5(6)-carboxyfluorescein release from vesicles containing 1,3-palmitoylamido-1,3-deoxy-sn-glycero-2-phosphatidylcholine (2) (Holme et al., Nat. Nanotechnol. 2012, 7, 536-543). […] Increasing the Tm promises improved release properties. […] This leads to a lower leakage of the vesicles at 22° C. (room temperature) as well as 37° C. (average human body temperature) (FIG. 8). A prolongation if the acyl chain to the artificial C18 phospholipid 1,3-stearoylamido-1,3-deoxy-sn-glycero-2-phosphatidylcholine leads to an increased Tm of 52° C., but this phospholipid forms almost no liposomes anymore.
Each sample was treated with Triton X-100 to induce a full release of 5(6)-carboxy fluorescein.
Large unilamellar vesicles with a diameter of 100 nm (LUVET100) of the 1,3-diheptadecanamidopropan-2-yl (2-(trimethylammonio) ethyl) phosphate (4) were prepared following the extrusion protocol: in a 25 ml round bottom flask, 10 mg of the lipid was dissolved in CH2Cl2. After evaporation of the organic solvent, the film was further dried under high vacuum (40 mbar) overnight. Then the film was hydrated with the internal buffer for 30 min (1 ml, 50 mM 5(6)-carboxyfluorescein, 10 mM HEPES buffer (AppliChem), 10 mM NaCl dissolved in pure water, pH 7.4). Now at least 5 freeze-thaw cycles (liquid N2 to 65° C.) were carried out before the suspension was extruded 11 times using a Mini Extruder (Avanti Polar Lipids, USA) using track-edged filters with a mesh size of 100 nm (Whatman, USA). The external buffer was then exchanged on a size exclusion column (1.5×20 cm Sephadex G-50 column) in external buffer (107 mM NaCl dissolved in ultrapure water, 10 mM HEPES, pH 7.4).

[5] = Differential scanning calorimetry, main phase transition of vesicle membranes; format: physicochemical; conditions: main phase transition temperature of liposome membrane
From the text: Interdigitation of membrane leaflets also influences the membranes main-phase transition temperature. […] Also, the value for the bilayer main-phase transition temperature is 11.5 K higher than the calculated critical temperature from the monolayer experiments, where no interdigitation is possible.

[6] = 22 ° C. (after cooling down to room temperature)

DLS most probable / dominant or smaller population size [1]	PDI, Before heating [1]	DLS larger population size [1]	most probable bilayer thickness ([3]; 22 ° C.)	most probable bilayer thickness [3, 6]	most probable bilayer thickness ([3]; 25 ° C.)	most probable bilayer thickness ([3]; 28 ° C.)	most probable bilayer thickness ([3]; 32 ° C.)	most probable bilayer thickness ([3]; 35 ° C.)	most probable bilayer thickness ([3]; 39 ° C.)	most probable bilayer thickness ([3]; 42 ° C.)	PDI, After heating [1]	Size (hydrodynamic), After heating [1]	Compound	Tm, main phase transition temperature [2]	further results
about 150 nm	0.57	~3 μm	5.57 nm	5.67 nm	5.55 nm	5.55 nm	5.52 nm	5.54 nm	5.58 nm	5.57 nm			CCCCCCCCCCCCCCCC(=O)NC[C@H](COP(=O)([O-])OCC[N+](C)(C)C)NC(=O)CCCCCCCCCCCCCCC [Pad-Pad-PC]	46 °C	Size (hydrodynamic), Before heating ([1]; listed as Pad-Pad-PC (2)): 1500 ± 30 nm; PDI, Before heating ([1]; listed as Pad-Pad-PC (2)): 0.57 ± 0.01; Tm, main phase transition temperature ([2]; listed as Pad-Pad-PC (2)): 40-47 °C
about 100 nm	0.57 ± 0.01	~1 μm	3.9 nm	4.82 nm	4.17 nm	4.46 nm	4.42 nm	4.6 nm	4.68 nm	4.58 nm	0.92 ± 0.08	3100 ± 200 nm	CCCCCCCCCCCCCCCC(=O)OCC(COC(=O)CCCCCCCCCCCCCCC)OP(=O)([O-])OCC[N+](C)(C)C [Pes-PC-Pes]	39 °C	Size (hydrodynamic), Before heating ([1]; listed as Pes-PC-Pes (3)): 170 ± 20 nm; increase in bilayer thickness at phase transition ([3]; present study): 18%; increase in bilayer thickness after the heating cycle ([3]; temperature cycle to 42° C. including cooling to room temperature): 24%
160 nm	0.23 ± 0.01		3.15 nm	3.01 nm	3.51 nm	3.51 nm	3.49 nm	3.46 nm	3.38 nm	3.33 nm	0.20 ± 0.02	220 ± 10 nm	CCCCCCCCCCCCCCCCCC(=O)NCC(CNC(=O)CCCCCCCCCCCCCCCCC)OP(=O)([O-])OCC[N+](C)(C)C [Sad-PC-Sad, 1,3-distearamidopropan-2-phosphocholine]	52 °C	Release at 37° C. after 2 h ([4]; 37° C., 2 h): 9.1%; Release at RT after 60 s vortex ([4]; mechanically induced release, 22° C. (RT), 60 s vortexing): 8.32%; Release 37° C. after 60 s vortex ([4]; mechanically induced release, 37° C., 60 s vortexing): 40.2%; Release at RT after 6 days ([4]; spontaneous release, RT, (6 days)): 8.4%; Size (hydrodynamic), Before heating ([1]; listed as Sad-PC-Sad (6)): 160 ± 3 nm; bilayer thickness variations ([3]; 22 to 42° C.): ≤ 10%; Tm [5]: 52 °C
